From patent publication US5349127A, “Expression of herbicide metabolizing cytochromes P450” (priority 1992, dated 1994) come the findings set out here.

Data set [1] concerns S. lividans transformed with pCAO400. Description: Metabolism of 10001 in growing culture, HPLC of supernatant (Example 4). Type of data set: in vitro ADME, Streptomyces lividans. The following applies: 0.12 mg/ml 10001 in culture. As to the method:
(§1) Herbicides and their metabolites are measured by HPLC as described by Romesser et al., BBRC 140: 650-659 (1986), herein incorporated by reference, except that 0.1% H3 PO4 is used in both solvents. Chromatographic identity and quantitation of the herbicides and their resulting metabolites is determined by comparing them chromatographically with authentic standard compounds. Identity of the resulting metabolites is also confirmed by UV spectroscopy.
(§2) Separate cultures (50 ml) inoculated with S. lividans C37, S. lividans transformed with pCAO400 or S. lividans transformed with pCAO401 in sporulation broth containing 0.12 mg/ml of 10001 were grown with shaking at 30° C. Aliquots (1.5 ml) of each culture were removed at 24, 32, 48 and 56 hours after inoculation and the supernatant of each aliquot was analyzed by HPLC for its concentration of 10001 and its metabolites 10002 or 10003.

In data set [2] the test system is S. lividans transformed with pCAO401. The description is as above. The settings on record: 0.12 mg/ml 10001 in culture. Type of data set: in vitro ADME, Streptomyces lividans. The method, then:
as §1, §2

A short description of data set [3]: Incubation buffer without cells, time 0 (Examples 5-9, 11, 12). Type of data set: in vitro ADME. The settings on record: no cells, 0 h. As to the method:
A 100 ml culture of S. griseolus ATCC 11796 in sporulation broth and a 50 ml culture of S. lividans transformed with pCAO400 in YEME broth were prepared and incubated for 24 hours as described. At that time, the S. griseolus culture was split into two 50 ml aliquots into two separate flasks and 25 ml of fresh sporulation broth was added to each and 9 mg of […] was added to one of these cultures to induce cytochrome P450SU1 expression. Fresh YEME broth (25 ml) was added to the S. lividans culture. After an additional 6 hours growth at 30° C., the cells in each culture were harvested as described above, washed twice with MOPS (50 mM, pH 7.2) and recentrifuged. The cell pellets were resuspended in four cell volumes of MOPS (50 mM, pH 7.2) containing 0.2% glucose and about 100 μg/ml of 10004. These cell suspensions were incubated at 30° C. with shaking and aliqouts were taken at 2 and 5.5 hours. The supernatant of each aliquot was analyzed by HPLC and the concentrations of the sulfonylurea compound 10004 and its metabolite 10005 were determined.
S. lividans transformed respectively with pCAO200SU1-FeS-B#9, pCAO200SU#112and pCAO200 were cultured for 36 hours in 400 ml of YEME broth at 30° C. S. griseolus ATCC 11796 was similarly cultured in 400 ml of sporulation broth. Six hours before harvesting the cells, 150 ml of fresh YEME broth was added to the S. lividans cells, and the S. griseolus cells were split into two 200 ml cultures with 100 ml of fresh sporulation broth added to each. 10001 (36 mg) was added to one of the two S. griseolus cultures to induce cytochrome P450SU1. The cells were prepared as described above in Example 5 and the concentrations of the sulfonylurea compound 10006 and its metabolites 10007, 10008 or 10009 were determined.
(§3) S. lividans transformed with pCAO200SU2-FeS-A#11 and S. lividans transformed with pCAO200 were cultured for 36 hours in 400 ml of YEME broth at 30° C. S. griseolus PH2001 (mutant without SU1) was cultured in 400 ml of sporulation broth at 30° C. Nine hours before harvesting the cells, the S. griseolus PH2001 culture was divided into two 200 ml cultures. Both received 100 ml of fresh sporulation broth and one received 36 mg of 10001 to induce cytochrome P450SU2. The cells were prepared as described above in Example 6 and the concentrations of the sulfonylurea compound 10001 and its metabolites 10002 and 10003 were determined.

Data set [4] has as its system S. lividans pCAO200SU2-FeS-A#11. Description: Sulfonylurea metabolism by washed cell suspension (Examples 11-12). Type of data set: in vitro ADME, Streptomyces lividans. The settings on record: substrate 10001. As to the method:
as §3

Data set [5] deals with S. griseolus PH3826. The data set is described as follows: Metabolism of 10001 by strains transformed with pPAT108 (Example 14). Type of data set: in vitro ADME, Streptomyces griseolus. The settings on record: substrate 10001 120 ug/ml. As to the method:
(§4) S. griseolus PH2003, S. griseus PH4001, S. ambofaciens PH4002, and S. lividans JI1326 were transformed with the plasmid pPAT108. The transformed S. griseolus strain, PH3826, was cultured for 24 hours in 150 mls of sporulation broth with 5 ug/ml thiostrepton. The transformed S. griseus strain, PH3832, and the transformed S. ambofaciens strain, PH3834, were cultured for 24 hours in 150 mls of trypticase soy broth with 5 ug/ml thiostrepton. The transformed S. lividans strain, PH3822, was similarly cultured in 150 mls of YEME broth with 5 ug/ml thiostrepton. Three hours before harvesting the cells, 50 mls of fresh medium of the same type with 5 ug/ml thiostrepton was added to each culture. The cells from each of the cultures were harvested by centrifugation, washed twice with 50 mMMOPS, pH7.2 and resuspended in five cell volumes of MOPS containing 0.2% glucose and 120 ug/ml of the sulfonylurea 10001. The cell suspensions were incubated at 30° C. with shaking and aliquots were removed at 0.5, 1, 2 and 4 hours. The supernatant of each aliquot was analyzed by HPLC and the concentration of the sulfonylurea compound 10001 and its metabolites 10002 and 10003 were determined.

In data set [6] the test system is S. griseus PH3817. Description: Metabolism of 10001 by strains transformed with pCS325 (Example 15). Type of data set: in vitro ADME, Streptomyces griseus. The settings on record: substrate 10001. The method, then:
as §4
(§5) S. griseolus PH2003, S. griseus PH4001, S. ambofaciens PH4002, and S. lividans JI1326 were transformed with the plasmid pCS325. Cells of the transformed strains of S. griseolus PH3809, S. griseus PH3817, S. ambofaciens PH3818, and S. lividans PH3816, were grown and treated as described in Example 14, and the concentrations of the sulfonylurea compound 10001 and its metabolites 10002 and 10003 were determined.

Data set [7] deals with S. lividans PH3816. The description is as above. The following applies: substrate 10001. Type of data set: in vitro ADME, Streptomyces lividans. As to the method: as §4, §5
For data set [8], the system named is S. lividans pCAO200. Description: Sulfonylurea metabolism by washed cell suspension (Examples 6-9). Type of data set: in vitro ADME, Streptomyces lividans.

Turning to `CCOC(=O)c1ccccc1S(=O)(=O)NC(=O)Nc1nc(Cl)cc(OC)n1` [compound 10001, N-[(4-chloro-6-methoxy-pyrimidin-2-yl)aminocarbonyl]-2-ethoxycarbonylbenzenesulfonamide], the concentration in supernatant in data set [1] (0 h) was found to be 300 µM; in data set [1] (24 h) it was 269 µM; in data set [1] (32 h) it was 240 µM; in data set [1] (48 h), 184 µM; in data set [1] (56 h), 137 µM; in data set [2] (0 h) it was 284 µM. Further, the concentration in supernatant in data set [2] (24 h) is 230 µM; in data set [2] (32 h), 203 µM; in data set [2] (48 h), 123 µM; in data set [2] (56 h), 105 µM; in data set [3] (Example 8, substrate 10001) it was 291 µM; in data set [3] (Example 11, substrate 10001), 279 µM. Further, the concentration in supernatant in data set [4] (2 h) came to 279 µM; in data set [4] (4 h) it was 273 µM; in data set [4] (6 h) it was 251 µM; in data set [5] (0.5 h) it was 222 µM; in data set [5] (1.0 h), 137 µM; in data set [5] (2.0 h), 19 µM. In addition, the concentration in supernatant in data set [5] (4.0 h) came to 0 µM; in data set [6] (0.5 h) it was 226 µM; in data set [6] (1.0 h) it was 181 µM; in data set [6] (2.0 h) it was 69 µM; in data set [6] (4.0 h), 0 µM; in data set [7] (0.5 h), 331 µM. Moreover, the concentration in supernatant was 339 µM in data set [7] (1.0 h); 299 µM in data set [7] (2.0 h); 248 µM in data set [7] (4.0 h); 301 µM in data set [8] (substrate 10001, 2 h); 287 µM in data set [8] (substrate 10001, 4 h); 313 µM in data set [8] (substrate 10001, 6 h).

Consider `CCOC(=O)c1ccccc1S(=O)(=O)NC(=O)Nc1nc(O)cc(Cl)n1` [compound 10002, N-[(4-chloro-6-hydroxy-pyrimidin-2-yl)aminocarbonyl]-2-ethoxycarbonylbenzenesulfonamide], for which the concentration in supernatant in data set [1] (0 h) was determined as 0 µM; in data set [1] (24 h), 17 µM; in data set [1] (32 h), 25 µM; in data set [1] (48 h), 39 µM; in data set [1] (56 h) it was 47 µM; in data set [2] (0 h), 0 µM. The concentration in supernatant is 32 µM in data set [2] (24 h); 44 µM in data set [2] (32 h); 63 µM in data set [2] (48 h); 71 µM in data set [2] (56 h); 7 µM in data set [4] (2 h); 12 µM in data set [4] (4 h). Besides, the concentration in supernatant in data set [4] (6 h) is 15 µM; in data set [5] (0.5 h), 41 µM; in data set [5] (1.0 h), 101 µM; in data set [5] (2.0 h), 171 µM; in data set [5] (4.0 h) it was 189 µM; in data set [6] (0.5 h), 37 µM. Besides, the concentration in supernatant is 73 µM in data set [6] (1.0 h); 167 µM in data set [6] (2.0 h); 220 µM in data set [6] (4.0 h); 19 µM in data set [7] (0.5 h); 36 µM in data set [7] (1.0 h); 68 µM in data set [7] (2.0 h). Further, the concentration in supernatant in data set [7] (4.0 h) was found to be 103 µM; in data set [8] (substrate 10001, 2 h), 2 µM; in data set [8] (substrate 10001, 4 h), 1 µM; in data set [8] (substrate 10001, 6 h), 2 µM.

`COC(=O)c1ccccc1S(=O)(=O)NC(=O)Nc1nc(C)cc(C)n1` [compound 10010, N-[(4,6-dimethylpyrimidin-2-yl)aminocarbonyl]-2-methoxycarbonylbenzenesulfonamide]: the concentration in supernatant turned out to be 87 µM in data set [3] (Example 7, substrate 10010); 88 µM in data set [3] (Example 12, substrate 10010); 90 µM in data set [8] (substrate 10010, 2 h); 89 µM in data set [8] (substrate 10010, 4 h); 89 µM in data set [8] (substrate 10010, 6 h).
